The IC50 is the concentration needed to halve the response being measured.

Data set [1] concerns ascites hepatoma H22 induced solid tumor. The data set is described as follows: In vivo tumor growth inhibition in mice bearing H22. Further details: species or system white Kunming mice. From the text: 1. Tumor strain and animal for experiments: H22 liver cancer cell strain was provided by Teaching and Research Office, School of Basic Medical Sciences, Lanzhou University/Key Lab of Preclinical Study for New Drugs of Gansu Province, and was passage and preserved by periodically intraperitoneal inoculation. White Kunming mice (18.0-22.0 g) were provided by Lanzhou Veterinary Institute, Chinese Academy of Agriculture.
(§1) 2. Establishment of tumor models and method of grouping: a third passage of mice which were well grown 7 d after intraperitoneal inoculation of H22 tumor cells were sacrificed by cervical dislocation, and placed and soaked in 75% alcohol for 10 min. After 3 mL of sterile physiological saline was intraperitoneally injected, milky tumor cell ascites was withdrawn from the abdominal cavity, and formulated into a tumor cell suspension with sterile physiological saline, with a cell number of 1.5×10^7 mL^−1. 80 white Kunming mice were taken, and 0.2 mL of the tumor cell suspension was subcutaneously inoculated to the left axilla of each mouse. 24 h after the inoculation of tumor cells, the mice were divided into 8 groups according to body weights, 10 mice for each group. […] All of the administration manners were intraperitoneal administration.
(§2) 3. Result of experiments: On the second day of modeling, continuous administration was performed for 10 d. Administration was stopped on the 11th d, and mice were sacrificed by cervical dislocation on the next day.
Test method: For the test method, see Example 24. Results can be seen in FIG. 15, FIG. 16, and Table 5.
(§3) Method: Modeling was performed by using the method of establishing H22 white mice tumor-bearing model of Example 24. The in vivo tumor growth inhibition activity of COM33 on H22 model mice was measured in an intraperitoneal injection administration manner.

Data set [2] has as its system human cervical cancer Hela cell strains. The data set is described as follows: MTT growth inhibition on Hela.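 Note: compound exposure of 24, 48 or 72 h in DMEM with 10% fetal bovine serum, MTT absorbance read at 490 nm, inhibition calculated relative to control group OD.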
Description: (§5) By using an MTT method, a sample solution to be tested was added to a 96-well plate in which cancer cells were adherently grown. Culturing was performed for a certain period, and the growth inhibition effect of a compound on a human cancer cell strain for primary screening was measured to determine the anti-cancer activity of the compound.
(§6) Cell culture: A cell incubator was set to conditions of 37° C., 5% CO2, and a saturated humidity, cells were cultured under these conditions, and the cell medium was a DMEM complete medium, wherein 10% fetal bovine serum, 100 IU/mL penicillin, and 100 μg/mL streptomycin were comprised.
(§7) The single cell suspension was diluted to 5×10^3/100 μL after counting, inoculated on a 96-well cell culture plate (triplicate), and adherently cultured overnight;
(§8) After 24 h of adhesion, the complete medium was discarded, 100 μL-sample-solutions to be tested having different concentrations were sequentially added to the 96-well plate according to a concentration gradient, and incubations were continued for 24 h, 48 h, and 72 h;
(§9) The culture liquid was discarded, a 0.5 mg/mL MTT diluted working liquid was added, and incubation was performed for 4 h by placing in an incubator;
(§10) The culture liquid was discarded, 100 μL of DMSO was added, low-speed oscillation was performed for 10 min by placing on a shaker, and the spectrophotometric value of each well was measured at a wavelength of 490 nm by using a microplate reader. Statistical analysis was performed and tumor cell growth inhibition rate was calculated according to the equation: Growth inhibition rate=(OD value of control group−OD value of experimental group)/OD value of control group.
(§11) Culturing was performed for a certain period, the growth inhibition effect of a compound on 3 human cancer cell strains for primary screening was measured to determine the anti-cancer activity of the compound, and a growth inhibition curve was plotted.
In data set [3] the test system is human gastric cancer cell strain MGC-803. Put plainly: MTT growth inhibition on MGC-803.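 Note: adherent cells exposed to compound over a concentration gradient for 24, 48 and 72 h, MTT absorbance at 490 nm, inhibition relative to untreated control wells.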
Description: as §5, §6, §7, §8, §9, §10, §11
Data set [4] has as its system C-Myc, Ki-67, CylinD1, β-Catenin protein. The data set is described as follows: Western blotting, protein expression in HepG2 cells. It counts as cell-based, human. The conditions noted are these: sorafenib 4 μg/mL; for expressions of C-Myc, Ki-67, CylinD1 and β-Catenin protein compared to the blank control group: high COM33 dosage 10.0 μg/mL, combination 4 μg/mL sorafenib+5.0 μg/mL COM33. How it is done:
(§4) Method: Gel electrophoresis of protein samples. Gel formulation: All components were added to a small beaker according to a formulation of a separation gel, uniformly mixed with slightly shaking to prevent the generation of bubbles, quickly applied to a seam of a glass plate with a 1 mL pipette, and then blocked with double distilled water to prevent oxidation. After 30 min, the separation gel solidified, the double distilled water thereof was poured off, waster was suctioned with a filter paper, a 5% concentration gel was formulated, TEMED was finally loaded onto the glass plate, and a 1.0 mm comb was inserted into the concentration gel and placed at room temperature for 30 min. The comb was slightly, vertically, and carefully pulled up, various groups of 20 μL protein samples were pipetted with a microsyringe, an equal volume of a loading buffer and an equal volume of a loading buffer containing 3 μL of Marker were separately added to a loading well, an electrophoresis instrument was switched on after electrodes were plugged, gels were run at 75V for 30 min, and the voltage was changed to 120V and gels were run for 2 h when bromophenol blue reaches the separation gel. Membrane transfer: A PVDF membrane having a suitable size was cut according to the size of the gel, placed in a methanol solution for 1 min, lifted, and placed and soaked together with a well cut filter paper in a previously precooled membrane transfer buffer. A sponge pad, three layers of filter paper, a gel, three layers of filter paper, and a sponge pad, in this order from top to bottom, were placed in a membrane transfer tank, and a precooled membrane transfer buffer was then added. Several ice bags were placed circumferentially to prevent an excessively hot external environment, and electrodes were plugged and membrane transfer was performed at a constant current of […] for 2.5 hours. Blocking and incubation of antibodies: A transferred membrane was cut into desired bands, which were placed in a blocking solution of 5% skim milk powder, placed on a shaker, and shaken at room temperature at a low speed for 1 h. A primary antibody was diluted with the blocking solution, a corresponding antibody was pipetted and added to a zip lock bag, the PVDF membrane was then placed in the antibody dilution, bubbles in the zip lock bag were evacuated, and the zip lock bag was sealed and placed in a refrigerator at 4° C. overnight. The membrane was withdrawn from the zip lock bag on the second day, and placed in a clean dish. A TBST solution was added and washed 3 times on a low-speed shaker, 10 min for each time. […]
On the technique in general: In western blotting, separated proteins are transferred to a membrane and probed.

Another data set has as its system Vimentin. Put plainly: Western blotting, Vimentin expression in HepG2 cells. It counts as cell-based, human. How it is done: as §4
In data set [5] the test system is human liver cancer cell strain HepG2. The data set is described as follows: MTT growth inhibition on HepG2.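 Note: adherent cells in 96-well plates treated with a concentration series for 24, 48 or 72 h, MTT absorbance read at 490 nm, inhibition computed relative to untreated control wells.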 It counts as cell-based. The settings on record: read-out: IC50 HepG2.
Description: as §5, §6, §7, §8, §9, §10, §11
For data set [6], the system named is ascites hepatoma H22 induced solid tumor. Put plainly: In vivo tumor growth inhibition in mice bearing H22. Set-up: species or system white Kunming mice. The settings on record: Table 6; low COM33 dosage group (50 mg/Kg), intraperitoneal injection.
The subject of another data set is various HCC. The settings on record: background; read-out: IC50 values, inhibition of tumor growth of various HCC; cited from earlier work.
For data set [7] the following is noted: background; cited from earlier work.
Data set [8] relates to hepatocellular carcinoma in late stages. The conditions noted are these: background; cited from earlier work.
Data set [9] has as its system HepG2 cells. Put plainly: Cell cycle distribution by flow cytometry. The settings on record: sorafenib 5 μg/mL, FICD 10 μg/mL, combination 5 μg/mL FICD+10 μg/mL sorafenib. It counts as cell-based, human. How it is done: 1 mL of 70% precooled (−20° C.) ethanol was added to the cell precipitate, homogenized by pipetting, and fixed at 4° C. overnight. On the second day, HepG2 cells was collected by centrifugation, 2 mL of precooled PBS was added for washing 3 times, 500 μL of PBS containing 50 μg/mL […] (PI) and 100 μg/mL RNaseA was added, and incubation was performed at 4° C. under protection from light for 30 min. Detection was performed on a flow cytometer, and results can be seen in FIG. 9 and FIG. 10.

For data set [10], the system named is HepG2 cells. Put plainly: Apoptosis induction, Annexin V and PI double-staining, flow cytometry. The conditions noted are these: HepG2, 24 h; sorafenib 4 μg/mL; combination 4 μg/mL sorafenib+5 μg/mL FICD. It counts as cell-based, human. How it is done: Different concentrations of FICD were added on the second day, culture was continued for 24 h, cells were collected and washed 3 times with precooled PBS, and adherent cells were digested with trypsin free of EDTA. The solutions were combined, centrifuged, and washed 3 times again with precooled PBS. 400 μL of solution containing 5 μL of V-FITC and 10 μL of PI was added, incubation was performed at room temperature under protection from light, and detection was performed by flowcytometry after 30 min.

The subject of data set [11] is HepG2 cells. The data set is described as follows: Apoptosis induction by laser confocal scanning microscope. The class given is cell-based, human. The conditions noted are these: HepG2, 48 h. How it is done: Two solutions (a former one and a later one) were mixed, centrifugation was performed at 1000 r/min for 5 min, the supernatant was discarded, and washing was performed for 3 times with PBS. The cell precipitate was resuspended in Binding Buffer, 10 μL of a FITC-Annen V staining liquid was added, homogenized by pipetting slightly, and reaction was performed under protection from light. PI was added for staining for 15 min, centrifugation was performed, the supernatant was discarded, and washing was performed for 3 times again with PBS. A glass slide was loaded by applying the cell precipitate thereto and mounted with non-fluorescent buffering glycerol, a laser confocal scanning microscope was immediately used for observation and taking photographs at wavelengths of 488 nm and 560 nm. Meanwhile, cells without AnneixnV-FITC and PI added were used as a negative control.

Details of data set [12]: species or system white Kunming mice. The settings on record: mouse, in vivo. How it is done:
as §1, §2, §3

The mark [13] stands for this setting: COM33 experiment (FIG. 17), combination compared to the sorafenib group.
The mark [14] stands for this setting: Homo sapiens, HepG2, Table 2, MTT.

Where two headings read alike, the source gives them in different places.

As for `COc1cc(NC(=O)Nc2ccc(N3CCC(CN)CC3)c(C(F)(F)F)c2)c2c(c1O)-c1c(OC)c(OC)cc3c1[C@H](C2)N(C)CC3` [Compound 17], the “Tumor inhibition rate (%)” value is listed as 73.8% in data set [1] (Table 6, high COM33 dosage group (100 g/Kg), intraperitoneal injection) and 27.2% in [6]. The IC50 in [2] (Homo sapiens, HeLa, read-out: IC50 HeLa, Table 1, MTT) was < 10 µM; in [2] (Homo sapiens, HeLa, read-out: IC50 Hela, Table 2, MTT), 6.32 µM; in data set [3] (Homo sapiens, MGC-803, read-out: IC50 MGC-803, Table 1, MTT) it was < 10 µM; in data set [3] (Homo sapiens, MGC-803, read-out: IC50 MGC-803, Table 2, MTT) it was 11.1 µM; in data set [5] (Homo sapiens, HepG2, Table 1, MTT), < 10 µM; in data set [5] (setting [14]) it was 7.51 µM. Moreover, in data set [4], the “expressions of C-Myc, Ki-67, CylinD1 and β-Catenin protein compared to the blank control group” value is “significantly reduced”. Besides, the Vimentin expression result in the data set on Vimentin (setting [13]) is recorded as “expressed in all groups”.
As for `COc1ccc2c(c1O)-c1c(OC)c(OC)cc3c1[C@H](C2)N(C)CC3` [ICD, isocorydine], the IC50 in data set [2] (Homo sapiens, HeLa, read-out: IC50 HeLa) was 581 µM; in data set [3] (Homo sapiens, MGC-803, read-out: IC50 MGC-803), 388 µM; in data set [5] (setting [14]), 569 µM; in the data set with various HCC, > 200 µM.
For the compound `COc1cc(N)c2c(c1O)-c1c(OC)c(OC)cc3c1[C@H](C2)N(C)CC3` [NICD, 8-amino-isocorydine, reference compound], the “stability on storage in an aqueous solution” value in [7] is recorded as “cannot be stored in an aqueous solution for a long period”. Further, the IC50 stood at 44.1 µM in data set [2] (read-out: IC50 Hela, Table 2, MTT); 62.1 µM in data set [3] (read-out: IC50 MGC-803, Table 2, MTT); 51.1 µM in [5] (Table 2, MTT).
As to `CNC(=O)c1cc(Oc2ccc(NC(=O)Nc3ccc(Cl)c(C(F)(F)F)c3)cc2)ccn1` [Sorafenib, reference compound], the “elongation of overall survival time of an HCC patient” value in data set [8] is given as 2 months. Moreover, the “Tumor inhibition rate (%)” value in data set [1] (Table 4, sorafenib 50 mg/Kg, intraperitoneal, 10 d) is reported as 55.8%; in data set [1] (Table 6, sorafenib 50 mg/Kg, intraperitoneal injection), 56.5%. Besides, the “expressions of C-Myc, Ki-67, CylinD1 and β-Catenin protein compared to the blank control group” value in [4] is “significantly reduced”. In addition, the “expressions of C-Myc, Ki-67, CylinD1 and β-Catenin protein compared to the blank group” value in data set [4] (high FICD dosage 20 μg/mL, combination 4 μg/mL sorafenib+10 μg/mL FICD) is recorded as “significantly reduced”. For the same compound, the Vimentin expression entry with Vimentin (setting [13]) is listed as “expressed in all groups”; in the data set on Vimentin (FICD experiment (FIG. 12)), “significantly increased”. The “cell cycle distribution compared to the blank control group” value in the data set with HepG2 cells [9] was “cells significantly increased in the G0/G1 phase of the cell cycle and significantly decreased in the S phase”. Further, the apoptosis rate in the data set on HepG2 cells [10] is given as 29.33%. Also, in the data set with HepG2 cells [11], the “apoptosis and cell morphology, Anneixn V-FITC and PI double-staining” value is “apoptoses occurred during various phases”. The “toxic and side effects on increased dosage” value in data set [12] was “toxic and side effects of sorafenib would obviously occur, resulting in death of experimental animals”.
